Experimental data taken from a melting point compilation (Tetko et al.; mined from patent text by program, amines drawn as free bases though some values may be those of a salt).

Row | SMILES | melting point [°C]
1 | CC(=O)OC(c1ccccc1)C1C(=O)NC1S(C)(=O)=O (mixture of isomers) | 178 to 182
2 | CCCCc1nc(SCC)c(C(=O)O)n1Cc1ccc(-c2ccccc2C(=O)O)cc1 | 156
3 | Cc1ccc(Oc2ccc(-c3ccccc3)cc2)cc1 | 97 to 99
4 | COC(=O)C(CCC(C(=O)OC)c1cc(OC)c(OC)c(OC)c1)c1cc(OC)c(OC)c(OC)c1 (configuration not stated) | 179 to 184
5 | CCCCc1nn(-c2cc(N)ccc2Br)c(=O)n1Cc1ccc(-c2ccccc2S(=O)(=O)NC(C)(C)C)cc1F | 103 to 105
6 | CCOC(=O)c1cccc(Cc2c[nH]cn2)c1O | 133
7 | CC[C@@H](Cc1ccc(OC)c(C(=O)NCc2ccc(Oc3ccc(F)c(F)c3)cc2)c1)C(=O)O | 118 to 120
8 | CC1CC(=O)NN=C1c1ccc(-n2cncn2)nc1 (configuration not stated) | 256 to 257
9 | O=c1[nH]c2c(I)c(Br)c(Br)c(I)c2[nH]c1=O | > 350
10 | CCOC(=O)C=Cc1ccccc1NC(=O)c1ccc(OCCCCc2ccccc2)cc1 | 129 to 131
11 | CC(C)OP(=O)(OC(C)C)C(Nc1ccccn1)P(=O)(OC(C)C)OC(C)C | 98 to 100
12 | COC(=O)C1=C(S(N)(=O)=O)CCC1 | 83 to 84
13 | COc1cc(Cl)c2[nH]c(=O)[nH]c(=O)c2c1OC | 282 to 284
14 | N#Cc1ncc(Cl)cc1OC1SCC(O)C(O)C1O (configuration not stated) | 122
15 | CCCCNC(=O)Oc1ccc(Oc2ccc(OC)cc2)cc1 | 63 to 64
16 | CC1=CCC(C(=O)O)CC1 (configuration not stated) | 95

Row | SMILES | melting point [°C]
17 | Fc1ccc(Cn2c(NC3CCN(CCc4cnccn4)CC3)nc3ccccc32)cc1 | 165
18 | COC(=O)NCC(C)OS(C)(=O)=O (configuration not stated) | 37 to 40
19 | CCOC(=O)CCc1cc(C(=O)c2ccc(C(=O)OCC)cc2)ccc1OCCCCCBr | 76.5 to 78
20 | COc1ccc(-c2nc(CCCCCCc3nnn[nH]3)oc2-c2ccc(OC)cc2)cc1 | 124
21 | O=C(NN=Cc1ccc(Cl)cc1)c1[nH]c2ccccc2c1Cc1ccccc1 | 221 to 222
22 | COc1ccc(C=CC(=O)NCCc2ccc(-c3ccccc3)c(S(N)(=O)=O)c2)c(OC)c1 | 85
23 | O=C(NS(=O)(=O)c1ccccc1C(=O)OC1COC1)Oc1ccccc1 | 91 to 92
24 | Clc1ccc(-c2c(-c3ccncc3)nc(-c3c(Cl)cccc3Cl)n2C2CC2)cc1 | 210 to 211
25 | CCCNC(=O)C(CCC(=O)NCCCOC(C)=O)NC(=O)C=Cc1ccco1 (configuration not stated) | 154 to 156
26 | CCOC(=O)c1c(C)nc(Cl)c([N+](=O)[O-])c1N | 73 to 75
27 | CCOc1nnc(COc2ccc(Oc3cccc(Cl)n3)cc2)s1 | 92 to 94
28 | O=C(O)COc1cccc(C(O)C(c2ccccc2)C2SCCCS2)c1 (configuration not stated) | 99 to 101
29 | CC(=O)OC[C@H]1OC(OC(C)=O)[C@H](OC(C)=O)[C@@H](F)[C@@H]1OC(C)=O (some centres not stated) | 115 to 121
30 | NC(=O)c1sc2ncnc(-c3cccc(NC(=O)Nc4ccccc4C(F)(F)F)c3)c2c1N | 172 to 175
31 | Cc1cccc(-c2[nH]c(C(C)C)nc2-c2ccc(F)c(-c3ccc(S(C)(=O)=O)cn3)c2)n1 | 105 to 108
32 | CNC(=S)N(C)c1nccs1 | 68 to 69

Continued, values first:

Row | melting point [°C] | SMILES
33 | 112 to 113 | CS(=O)(=O)N(Cc1cccnc1)c1ccc(F)cc1
34 | 142 to 144 | CCC(CC)Oc1ccc(-n2cc(C(=O)O)cn2)cc1C#N
35 | 224 to 226 | Nc1nc(=O)n(CC2CC2)cc1F
36 | 98 to 100 | Cc1nc2c(cc1C(=O)N(C(=N)N)C(=O)OC(C)(C)C)CCCCC2CO (configuration not stated)
37 | 59 to 61 | CC(C)Oc1cc([N+](=O)[O-])ccc1-n1cccc1
38 | 64 to 65 | COC(=O)C(=O)c1ccc(OCCCCSc2ccc3ccccc3c2)cc1
39 | 147 | CC[C@@H]1CCCN1CCc1cc2cc(-c3ccc(C#N)cc3)ccc2o1
40 | 193 to 195 | COc1ccc(C(=O)Nc2ccccc2)cc1NCc1ccc(OC(C)=O)cc1
41 | 105 to 107 | CCN(CC)CCOCCC1CCCCN1C(=O)N1c2ccccc2NC(=O)c2csc(C)c21 (configuration not stated)
42 | 178 to 179 | CCOC(=O)C[C@@H](C)NC(=O)N[C@H]1CCN(c2ccc(C#N)cc2)C1=O
43 | 246 to 247 | CCc1cn(C2CC(O)C(CNC(=O)c3ccccc3)O2)c(=O)[nH]c1=O (configuration not stated)
44 | 88 to 93 | CC(C)C(=O)NCCC1C=CC=CC1=O (configuration not stated)
45 | 98 to 100 | Cc1ccc(S(=O)(=O)OCC2Cc3cccc(-c4ccccc4C)c3O2)cc1 (configuration not stated)
46 | 130 | Cc1ccc(S(=O)(=O)N(c2ccc(Cl)cc2C#N)C(C)C)cc1
47 | 123 to 124 | O=C1O[C@@H](CO)CN1c1ccc(Br)cn1
48 | 109 to 111 | CCOC(=O)N1C=CN(c2ccccc2)C1C#N (configuration not stated)
49 | 103 to 104 | O=C(c1cccc(Cl)n1)c1ccc(Cl)cc1Cl
50 | 110 | CN(C)CC1Cc2c(n(C)c3ccc(O)cc23)C1 (configuration not stated)
51 | 225 to 226 | COc1ccc(-c2c(Cl)c(CN3C(=O)CCC3=O)nc3sc4c(c23)CCNC4)cc1
52 | 88 to 91 | COc1cc(Nc2c(C#N)cnc3cc(-c4cccc(CN5CCOCC5)c4)ccc23)c(Cl)cc1Cl

Row | melting point [°C] | SMILES
53 | 67.5 to 70 | CCCc1c(C(=O)C(C)C)c2ccc(C(=O)OCc3ccccc3)cc2n1C(=O)c1ccccc1Cl
54 | 210 to 220 | Cc1ccnc(C(=O)c2[nH]c3cc(C(F)(F)F)ccc3c2CC(=O)O)c1
55 | 162 to 163 | Cc1c(C=NO)c2cc(F)ccc2n1-c1ccc(O)cc1
56 | 182 to 183 | O=C1Nc2cccc(Br)c2C(=O)N2CC[C@@H]12
57 | 167 to 168 | COc1nc2oc(-c3ccccc3)nc2cc1C
58 | > 275 | CS(=O)(=O)c1ccc(-c2cc(-c3nc4ccccc4c(=O)n3-c3ccccc3)sc2N2CCOCC2)cc1
59 | 86.2 to 87.5 | CC(Br)c1ncnc(Sc2ccc(Cl)cc2)c1F (configuration not stated)
60 | 78 to 80.5 | CC(C)(C(=O)O)c1ccsc1
61 | 116 to 118 | CC(=O)OCC1(C)SC2C(NC(=O)Cc3ccccc3)C(=O)N2C1C(=O)OCC(Cl)(Cl)Cl (configuration not stated)
62 | 208 to 210 | CCn1ncc2c1ncc1c(=O)n(C)c3ncnn3c12
63 | 84 to 86 | CCc1ccc(-c2nc3ccccc3o2)cc1
64 | 170 to 172 | CS(=O)(=O)Nc1cc([C@@H](O)CNC2CCN(c3ccc(S(=O)(=O)NCC(=O)O)cc3)CC2)ccc1O
65 | 169 to 172 | Cc1cc2c(cc1C(=O)c1ccc(C(O)=NOCc3ccccc3)cc1)C(C)(C)CCC2(C)C
66 | 110 to 115 | N#Cc1cnn(-c2ccccn2)c1SCc1ccccc1
67 | 223 to 224 | CCn1c(=O)c2c(nc(/C=C/c3cccc(OC(=O)c4ccccc4)c3)n2C)n(CC)c1=O
68 | 229 to 231 | COC(=O)C1=C(C)NC2=C(C(=O)OC2)C1c1cccc(Br)c1 (configuration not stated)
69 | 69 | CCOc1c(C(=O)Nc2ccccc2)csc1Cl
70 | 86 to 87 | CCCCCCCCCCNC1=CC(=O)c2c(OC)ccc(OC)c2C1=O
71 | 159 to 160 | CN(C)C(=O)c1ccc([N+](=O)[O-])cc1S(N)(=O)=O
72 | 175 to 177 | Cn1c(=O)c2c(nc(C=Cc3cccc(N(C(=O)OC(C)(C)C)C(=O)OC(C)(C)C)c3)n2C)n(C)c1=O
